Data set [1] has as its target T1, 11β-HSD1 (Homo sapiens, UniProt P28845).
T1 construct: expressed in transfected cells; host or cells: HEK 293 (stably transfected, HEK 293/HSD11B1)
The data set can be described thus: 11β-HSD1 HEK assay (cell based assay, SPA). As for the experimental part: 11β-HSD1 HEK Assay Protocol (Cell Based Assay)
11β-HSD1 activity is measured in whole HEK 293 cells stably transfected with the HSD11B1 gene. Cells are incubated in 96-well microplates in the presence of tritiated substrate. Enzyme activity is determined by measuring the amount of tritated product by scintillation proximity assay (SPA). Assay plates contain internal high and low controls to allow calculation of percentage inhibition.
1. […] 2. When the cells are 80% confluent the medium is removed from each well. 100 μl fresh, serum-free, medium containing ^3H-cortisone and test compound in 1% DMSO is added to each well*. Control wells are also dispensed. […] 3. The plate is incubated at 37° C. for the required time period. 4. 50 μl of media is removed from each well and transferred to a microplate containing 100 μl of a pre-incubated mixture of anti-cortisol antibody and SPA bead. The mixture is incubated with gentle shaking until equilibrium is reached, before transferring to a scintillation counter to establish the enzyme activity in each sample.
10 μl of compound is dispensed into each well of a 96-well microplate in 10% DMSO at 100 μM concentration. 90 μl media containing ^3H-cortisone is added to each well. The compound/media/substrate mixture is then transferred to the assay plate containing the cells. […]

Setting [2] is: HEK293, at 1 μM, whole HEK 293 cells stably transfected with the HSD11B1 gene, 3H-cortisone substrate, read-out: Activity (inhibition of 11β-HSD1).
Setting [3] is: HEK293, read-out: Activity (inhibition of 11β-HSD1).

Where two headings read alike, the source gives them in different places. A value given as a limit tells only on which side of the number the result lay.

T1 sequence (P28845 whole entry): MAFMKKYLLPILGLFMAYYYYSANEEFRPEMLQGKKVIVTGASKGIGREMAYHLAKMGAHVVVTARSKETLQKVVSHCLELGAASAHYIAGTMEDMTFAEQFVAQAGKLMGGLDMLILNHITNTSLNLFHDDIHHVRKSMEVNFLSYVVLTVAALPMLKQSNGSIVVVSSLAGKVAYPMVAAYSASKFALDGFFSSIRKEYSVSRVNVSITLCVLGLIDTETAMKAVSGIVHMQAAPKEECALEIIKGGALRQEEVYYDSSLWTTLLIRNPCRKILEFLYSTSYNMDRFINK

As for `O=C(Nc1nnc(S(=O)(=O)CC(=O)C23CC4CC(CC(C4)C2)C3)s1)C1CC1` [Example 97, N-(5-{[2-(Adamantan-1-yl)-2-oxoethane]sulfonyl}-1,3,4-thiadiazol-2-yl)cyclopropanecarboxamide], the melting point was in the range of 209 to 211 °C. Besides, the inhibition at 1 µM in data set [1] (setting [2]) is above 60%.

Compound `O=C(COc1cccnc1)C12CC3CC(CC(C3)C1)C2` [Example 61, 1-Adamantan-1-yl-2-(pyridin-3-yloxy)-ethanone] had a melting point of 73 to 75 °C. In data set [1] (setting [2]), the inhibition at 1 µM was above 60%. Regarding `O=C(CSCc1ccc(Cl)nc1)C12CC3CC(CC(C3)C1)C2` [Example 62, 1-Adamantan-1-yl-2-(6-chloro-pyridin-3-ylmethylsulfanyl)-ethanone], the melting point lay in the range of 88 to 90 °C. Also, in data set [1] (setting [2]), the inhibition at 1 µM fell in the range of 20 to 60%. Taken in the same sequence, the figures for `O=C(O)c1ccc(SCC(=O)C23CC4CC(CC(C4)C2)C3)nc1` [Example 29, 6-(2-Adamantan-1-yl-2-oxo-ethylsulfanyl)-nicotinic acid] were 174 to 176 °C and above 60%. Taken in the same sequence, the figures for `O=C(Nc1nnc([S+]([O-])CC(=O)C23CC4CC(CC(C4)C2)C3)s1)C1CC1` (centres unmarked) [Example 96, N-(5-{[2-(Adamantan-1-yl)-2-oxoethane]sulfinyl}-1,3,4-thiadiazol-2-yl)cyclopropanecarboxamide] were 172.5 to 174 °C and above 60%. The corresponding values for `Cc1cccc(SCC(=O)C23CC4CC(CC(C4)C2)C3)n1` [Example 26, 1-Adamantan-1-yl-2-(6-methyl-pyridin-2-ylsulfanyl)-ethanone] are 115.5 to 116.5 °C and above 60%. In turn, `Cc1cccc([S+]([O-])CC(=O)C23CC4CC(CC(C4)C2)C3)n1` (centres unmarked) [Example 31, 1-(adamantan-1-yl)-2-[(6-methylpyridine-2-)sulfinyl]ethan-1-one] showed a melting point of 75 to 76 °C. In addition, the inhibition at 1 µM in data set [1] (setting [2]) was above 60%.

The compound `CCNC(=O)c1ccc(SCC(=O)C23CC4CC(CC(C4)C2)C3)nc1` [Example 34, 6-{[2-(adamantan-1-yl)-2-oxoethyl]sulfanyl}-N-ethylpyridine-3-carboxamide] came in with a melting point of 135.5 to 137 °C. The inhibition at 1 µM in data set [1] (setting [2]) was above 60%. The corresponding values for `O=C(CS(=O)(=O)c1ccc(C(F)(F)F)cn1)C12CC3CC(CC(C3)C1)C2` [Example 67, 1-Adamantan-1-yl-2-(5-trifluoromethyl-pyridine-2-sulfonyl)-ethanone] are 138 to 139 °C and 20 to 60%.

Take `O=C(C[S+]([O-])Cc1ccncc1)C12CC3CC(CC(C3)C1)C2` (centres unmarked) [Example 84, 1-Adamantan-1-yl-2-(pyridin-4-ylmethanesulfinyl)-ethanone]: the melting point lay in the range of 119 to 123 °C. For the same compound, the inhibition at 1 µM in data set [1] (setting [2]) is above 60%. The corresponding values for `COCc1nnc(SCC(=O)C23CC4CC(CC(C4)C2)C3)n1C` [Example 107, 1-(Adamantan-1-yl)-2-{[5-(methoxymethyl)-4-methyl-4H-1,2,4-triazol-3-yl]sulfanyl}ethan-1-one] are 109 to 111 °C and above 60%. Take `O=C(CSc1ccncc1)C12CC3CC(CC(C3)C1)C2` [Example 27, 1-Adamantan-1-yl-2-(pyridin-4-ylsulfanyl)-ethanone]: the melting point lay within 114 to 115 °C. In addition, the inhibition at 1 µM in data set [1] (setting [2]) was above 60%. Compound `O=C(CS(=O)(=O)c1ccncc1)C12CC3CC(CC(C3)C1)C2` [Example 32, 1-(adamantan-1-yl)-2-(pyridine-4-sulfonyl)ethan-1-one] yielded a melting point of 143 to 144 °C. Also, the inhibition at 1 µM in data set [1] (setting [2]) was above 60%.

Compound `O=C(CCc1cccnc1)C12CC3CC(CC(C3)C1)C2` [Example 39, 1-Adamantan-1-yl-3-pyridin-3-yl-propan-1-one] showed a melting point of 43 to 44.5 °C. The inhibition at 1 µM in data set [1] (setting [2]) is above 60%. Taken in the same sequence, the figures for `Cn1cnnc1[S+]([O-])CC(=O)C12CC3CC(CC(C3)C1)C2` (centres unmarked) [Example 63, 1-Adamantan-1-yl-2-(4-methyl-4H-[1,2,4]triazole-3-sulfinyl)-ethanone] were 124.5 to 127 °C and above 60%. The compound `CN(C)C(=O)c1ccc(SCC(=O)C23CC4CC(CC(C4)C2)C3)nc1` [Example 35, 6-(2-Adamantan-1-yl-2-oxo-ethylsulfanyl)-N,N-dimethyl-nicotinamide] came in with a melting point of 62.5 to 64.5 °C. For the same compound, the inhibition at 1 µM in data set [1] (setting [2]) was above 60%. Taken in the same sequence, the figures for `O=C(CS(=O)(=O)Cc1ccc[n+]([O-])c1)C12CC3CC(CC(C3)C1)C2` [Example 10, 1-Adamantan-1-yl-2-(1-oxy-pyridin-3-ylmethanesulfonyl)-ethanone] were 182 to 183.5 °C and above 60%.

Compound `Cn1ccnc1[S+]([O-])C(C)(C)C(=O)C12CC3CC(CC(C3)C1)C2` (centres unmarked) [Example 15, 1-Adamantan-1-yl-2-methyl-2-(1-methyl-1H-imidazole-2-sulfinyl)-propan-1-one] showed a melting point of 98 to 102 °C. Moreover, the inhibition at 1 µM in data set [1] (setting [2]) was below 20%.

Compound `O=C(CSCc1cccnc1)C12CC3CC(CC(C3)C1)C2` [Example 7, 1-Adamantan-1-yl-2-(pyridin-3-ylmethylsulfanyl)-ethanone] gave a melting point of 45 to 47 °C. In data set [1] (setting [2]), the inhibition at 1 µM was above 60%. For the compound `Cc1nnc(SCC(=O)C23CC4CC(CC(C4)C2)C3)s1` [Example 78, 1-Adamantan-1-yl-2-(5-methyl-[1,3,4]thiadiazol-2-ylsulfanyl)-ethanone], the melting point lay in the range of 102 to 105 °C. Also, in data set [1] (setting [3]), the inhibition at 1 µM was above 60%. On to `O=C(CSc1n[nH]c(-c2ccccc2)n1)C12CC3CC(CC(C3)C1)C2` [Example 89, 1-(Adamantan-1-yl)-2-[(5-phenyl-1H-1,2,4-triazol-3-yl)sulfanyl]ethanone], for which the melting point is 187 to 188 °C. In data set [1] (setting [2]), the inhibition at 1 µM is below 20%.

Take `Cn1ccnc1SCC(=O)C1(c2ccc(Cl)cc2)CCCC1` [Example 41, 1-[1-(4-Chloro-phenyl)-cyclopentyl]-2-(1-methyl-1H-imidazol-2-ylsulfanyl)-ethanone]: the inhibition at 1 µM in data set [1] (setting [2]) was 20 to 60%. The same measure, in the same setting: the result for `Cn1cnnc1SCC(=O)C1(c2ccc(Cl)cc2)CC1` [Example 100, 1-(1-(4-Chlorophenyl)cyclopropyl)-2-(4-methyl-4H-1,2,4-triazol-3-ylthio)ethanone] reads 20 to 60%; that for `O=C(CS(=O)(=O)c1ccccn1)C1(c2ccc(Cl)cc2)CCC1` [Example 22], below 20%.

Regarding `O=C(CS(=O)(=O)c1ccccn1)C1(c2ccc(Cl)cc2)CC1` [Example 6, 1-[1-(4-Chloro-phenyl)-cyclopropyl]-2-(pyridine-2-sulfonyl)-ethanone], in data set [1] (setting [2]), the inhibition at 1 µM was below 20%. The same measure, in the same setting: the same measure for `O=C(CS(=O)(=O)Cc1cccnc1)C12CC3CC(CC(C3)C1)C2` [Example 9, 1-Adamantan-1-yl-2-(pyridin-3-ylmethanesulfonyl)-ethanone]: above 60%; for `COc1cccnc1COCC(=O)C12CC3CC(CC(C3)C1)C2` [Example 86, 2-((3-Methoxypyridin-2-yl)methoxy)-1-adamantylethanone]: above 60%.

As for `Cc1nnc(S(=O)(=O)CC(=O)C23CC4CC(CC(C4)C2)C3)s1` [Example 79, 1-Adamantan-1-yl-2-(5-methyl-[1,3,4]thiadiazole-2-sulfonyl)-ethanone], the inhibition at 1 µM in data set [1] (setting [3]) was above 60%. For `Cn1ccnc1SCC(=O)C1(c2ccc(Cl)cc2)CC1` [Example 1, 1-[1-(4-Chloro-phenyl)-cyclopropyl]-2-(1-methyl-1H-imidazol-2-ylsulfanyl)-ethanone], the inhibition at 1 µM in data set [1] (setting [2]) was above 60%.

Consider `O=C(C[S+]([O-])c1ccncc1)C12CC3CC(CC(C3)C1)C2` (centres unmarked) [Example 33, 1-(adamantan-1-yl)-2-(pyridine-4-sulfinyl)ethan-1-one], for which the inhibition at 1 µM in data set [1] (setting [2]) was above 60%. On the same count and under the same terms, the same measure for `Cn1ccnc1S(=O)(=O)CC(=O)C1(c2ccc(Cl)cc2)CCCC1` [Example 43, 1-[1-(4-Chloro-phenyl)-cyclopentyl]-2-(1-methyl-1H-imidazole-2-sulfonyl)-ethanone]: 20 to 60%. For `Cn1ccnc1[S+]([O-])CC(=O)C1(c2ccc(Cl)cc2)CCC1` (centres unmarked) [Example 25, 1-[1-(4-Chloro-phenyl)-cyclobutyl]-2-(1-methyl-1H-imidazole-2-sulfinyl)-ethanone], in data set [1] (setting [2]), the inhibition at 1 µM is below 20%. On the same count and under the same terms, the result for `O=C(C[S+]([O-])c1ccccn1)C1(c2ccc(Cl)cc2)CCCCC1` (centres unmarked) [Example 49, 1-[1-(4-Chloro-phenyl)-cyclohexyl]-2-(pyridine-2-sulfinyl)-ethanone] reads below 20%; that for `Cc1cc(C)c(C(=O)CS(=O)(=O)c2ccccn2)c(C)c1` [Example 75, 2-(Pyridine-2-sulfonyl)-1-(2,4,6-trimethyl-phenyl)-ethanone], below 20%. Still for that read-out and setting: the result for `O=C(CS(=O)(=O)Cc1ccc(C(F)(F)F)nc1)C12CC3CC(CC(C3)C1)C2` [Example 69, 1-Adamantan-1-yl-2-(6-trifluoromethyl-pyridin-3-ylmethanesulfonyl)-ethanone] reads 20 to 60%.

For the origin of these results see US20110112151A1, “COMPOUND CAPABLE OF INHIBITING 11-BETA HYDROXYSTERIOD DEHYDROGENASE” (priority 2008, published 2011).
